Patent publication US8030298B2, “17β-HSD1 and STS inhibitors” (Abbott Products GmbH, priority 2005, dated 2011)

Molecular target: T1, recombinant human 17β-hydroxysteroid dehydrogenase type 1 (Homo sapiens, UniProt P14061)
T1 construct: made in house; host or cells: Sf9 insect cells (baculovirus, Bac to Bac Expression System)
T1 sequence (P14061 1-328): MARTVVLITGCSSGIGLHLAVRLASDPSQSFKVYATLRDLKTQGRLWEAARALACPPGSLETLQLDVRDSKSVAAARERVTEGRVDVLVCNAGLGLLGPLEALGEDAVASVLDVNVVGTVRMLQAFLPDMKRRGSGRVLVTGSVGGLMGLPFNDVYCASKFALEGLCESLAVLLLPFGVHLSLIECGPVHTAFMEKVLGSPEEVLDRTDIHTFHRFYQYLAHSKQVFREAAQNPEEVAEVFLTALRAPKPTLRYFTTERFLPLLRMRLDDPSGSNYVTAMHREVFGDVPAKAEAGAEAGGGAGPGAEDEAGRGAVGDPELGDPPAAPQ
Experiment: Inhibition of recombinant human 17β-hydroxysteroid dehydrogenase type 1 (3H-estrone to estradiol conversion, HPLC)
Assay type: biochemical
Settings: read-out: Inhibition of rec. 17β-HSD1 (% inhibition); for inhibition at 0.1 µM: inhibitor concentration 100 nM; for inhibition at 1 µM: 0.5 h, inhibitor concentration 1 μm
Protocol: 17β-HSD1 purification: Recombinant baculovirus was generated by the “Bac to Bac Expression System” (Invitrogen). Recombinant bacmid was transfected to Sf9 insect cells using “Cellfectin Reagent” (Invitrogen). 60 h later cells were harvested; the microsomal fraction was isolated as described by Puranen et al. (1994). Aliquots were stored frozen until determination of enzymatic activity.
Assay—Inhibition of recombinant human 17β-hydroxysteroid dehydrogenase type 1: Recombinant protein (0.1 μg/ml) was incubated in 20 mM KH2PO4 pH 7.4 with 30 nM 3H-estrone and 1 mM NADPH for 30 min at RT, in the presence of potential inhibitors at concentrations of 1 μM or 0.1 μM. Inhibitor stock solutions were prepared in DMSO. Final concentration of DMSO was adjusted to 1% in all samples. The enzyme reaction was stopped by addition of 10% trichloroacetic acid (final concentration). Samples were centrifuged in a microtiter plate at 4000 rpm for 10 min. Supernatants were applied to reverse phase HPLC on a Waters Symmetry C18 column, equipped with a Waters Sentry Guard column. Isocratic HPLC runs were performed at RT at a flow rate of 1 ml/min of acetonitrile:water 48:52 as running solvent. Radioactivity was monitored in the eluate by a Packard Flow Scintillation Analyzer. Total radioactivity for estrone and estradiol were determined in each sample and percent conversion of estrone to estradiol was calculated according to the following formula:
Percent inhibition was calculated as follows: % inhibition=100−% conversion

Row | SMILES | inhibition at 0.1 µM [%] | inhibition at 1 µM [%]
1 | Cc1cnc(NC(=O)CC[C@@H]2CC(F)(F)[C@@]3(C)CC[C@@H]4c5ccc(O)cc5CC[C@H]4[C@H]23)s1 [Example 93, 3-(17,17-Difluoro-3-hydroxy-estra-1,3,5(10)-trien-15β-yl)-N-(5-methyl-thiazol-2-yl)-propionamide] | 59.5 | 
2 | C[C@]12CC[C@@H]3c4ccc(O)cc4CC[C@H]3[C@@H]1[C@H](CCCC(=O)N1CCOCC1)c1cn[nH]c12 [Example 162, 3-Hydroxy-15β-(4-morpholin-4-yl-4-oxo-butyl)-estra-1,3,5(10)-trien-[16,17-c]-pyrazole] | 63 | 93
3 | C[C@]12CC[C@@H]3c4ccc(OS(N)(=O)=O)cc4CC[C@H]3[C@@H]1[C@H](CCCC(=O)N1CCOCC1)CC2=O [Example 163, 3-Sulphamate-15β-(4-morpholin-4-yl-4-oxo-butyl)-estra-1,3,5(10)-trien-17-one] | 10 | 43
4 | C[C@]12CC[C@@H]3c4ccc(OS(=O)(=O)O)cc4CC[C@H]3[C@@H]1[C@H](CCCC(=O)N1CCOCC1)CC2=O [Example 164, 3-Sulphate-15β-(4-morpholin-4-yl-4-oxo-butyl)-estra-1,3,5(10)-trien-17-one] | 3 | 27
